Test results as given in patent US20260345619A1 (Principia Biopharma Inc., priority 2023, published 2026).

Test: Loss of asthma control (LOAC) events, 12-week ICS/LABA withdrawal study
Type: in vivo, human
Description: The general construct of this 12-week Loss of Asthma Control (LOAC) study consisted of a 4-week standardized ICS/LABA background therapy stabilization phase, a 4or 5-week background therapy withdrawal phase and a 3- or 4-week no background therapy phase, followed by a 4-week post IMP treatment safety follow-up period at the beginning of which, pre-screening asthma controller medications are restarted. Participants had access to short-acting β-agonist (SABA) reliever medication at all times during the protocol.
The primary endpoint was the proportion of patients with LOAC. The key secondary endpoint for the study was change in pre-bronchodilator FEV1 from baseline at EOT.
The primary endpoint was proportion of participants with LOAC during the 12-week treatment period.
Note that if the number of participants in some regions was too low, these regions may have been pooled with other regions. This strategy also applied to all the rest of the analyses where region was one of the covariates.
To assess the consistency in treatment effects across different subgroup levels, subgroup analyses were to be performed for the primary efficacy endpoint with respect to age group, gender, region, and other factors.
Secondary endpoints included pre-bronchodilator FEV1 change from baseline at EOT, ACQ-5 score change from baseline, and AQLQ score change from baseline. Other secondary and exploratory endpoints are described in Table 2.

[1] = 400 mg BID cohort, Latin America, n = 25
[2] = 400 mg BID cohort, N = 32, mITT
[3] = 400 mg BID cohort, age <45 years, n = 12
[4] = 400 mg BID cohort, age ≥45 years, n = 20
[5] = 400 mg BID cohort, baseline BMI <25 kg/m^2, n = 8
[6] = 400 mg BID cohort, baseline BMI ≥25-<30 kg/m^2, n = 16
[7] = 400 mg BID cohort, baseline BMI ≥30 kg/m^2, n = 8
[8] = 400 mg BID cohort, baseline weight ≥60-<90 kg, n = 23
[9] = 400 mg BID cohort, female, n = 18
[10] = 400 mg BID cohort, male, n = 14
[11] = 400 mg BID, N=32, 12 weeks, mITT
[12] = 400 mg BID, 1 exacerbation within 2 years
[13] = 400 mg BID, 2 exacerbations within 2 years
[14] = 400 mg BID, >2 exacerbations within 2 years
[15] = 400 mg BID, FEV1 reversibility <12 %
[16] = 400 mg BID, FEV1 reversibility ≥12 %
[17] = 400 mg BID, age at onset <12 years
[18] = 400 mg BID, age at onset <18 years
[19] = 400 mg BID, age at onset ≥12-<18 years
[20] = 400 mg BID, age at onset ≥18-<40 years

CC(C)(C=C(C#N)C(=O)N1CCC[C@@H](n2nc(-c3ccc(Oc4ccccc4)cc3F)c3c(N)ncnc32)C1)N1CCN(C2COC2)CC1 (mixture of isomers) [rilzabrutinib, (R)-2-[3-[4-amino-3-(2-fluoro-4-phenoxy-phenyl)pyrazolo[3,4-d]pyrimidin-1-yl]piperidine-1-carbonyl]-4-methyl-4-[4-(oxetan-3-yl)piperazin-1-yl]pent-2-enenitrile]
LOAC incidence, number of participants (400 mg BID cohort, APAC, n = 2): 2
LOAC incidence, percentage (400 mg BID cohort, APAC, n = 2): (100)
LOAC incidence, number of participants (400 mg BID cohort, Eastern Europe, n = 3): 1
LOAC OR vs. placebo (400 mg BID cohort, Eastern Europe, 95% CI (0.023, 11.088)): 0.500
LOAC RD vs. placebo (400 mg BID cohort, Eastern Europe, 95% CI (−0.891, 0.558)): −0.167
LOAC incidence, number of participants [1]: 9
LOAC incidence, percentage [1]: (36.0)
LOAC OR vs. placebo (400 mg BID cohort, Latin America, 95% CI (0.230, 2.230)): 0.716
LOAC RD vs. placebo (400 mg BID cohort, Latin America, 95% CI (−0.351, 0.191)): −0.080
Intervention discontinuation due to lack of efficacy or an AE related to asthma worsening, number [2]: 0
Number of participants requiring hospitalization or emergency room visit [2]: 0
Number of participants with LOAC: No [2]: 20
Number of participants with LOAC: Yes [2]: 12
Number of participants with increase in ICS ≥4 times the last prescribed ICS dose (or ≥50% of the prescribed ICS dose at baseline if background therapy withdrawal completed) [2]: 1
Number of participants with ≥6 additional reliever puffs of salbutamol/albuterol or levosalbutamol/levalbuterol in a 24 hour period (compared with baseline) on 2 consecutive days [2]: 2
Number of participants with ≥30% reduction from baseline in AM PEF on 2 consecutive days [2]: 6
Participants with LOAC not triggered by use of rescue medication, number [2]: 6
Participants with LOAC not triggered by use of rescue medication, percentage [2]: (18.8)
Participants with LOAC triggered by use of rescue medication, number [2]: 6
Participants with LOAC triggered by use of rescue medication, percentage [2]: (18.8)
Percentage of participants with LOAC: No [2]: (62.5)
Percentage of participants with LOAC: Yes [2]: (37.5)
Percentage of participants with increase in ICS ≥4 times the last prescribed ICS dose (or ≥50% of the prescribed ICS dose at baseline if background therapy withdrawal completed) [2]: (3.1)
Percentage of participants with ≥6 additional reliever puffs of salbutamol/albuterol or levosalbutamol/levalbuterol in a 24 hour period (compared with baseline) on 2 consecutive days [2]: (6.3)
Percentage of participants with ≥30% reduction from baseline in AM PEF on 2 consecutive days [2]: (18.8)
LOAC incidence, number of participants (400 mg BID cohort, Western Countries, n = 2): 0
LOAC incidence, number of participants [3]: 6
LOAC incidence, percentage [3]: (50.0)
LOAC OR vs. placebo (400 mg BID cohort, age <45 years, 95% CI (0.342, 18.129)): 2.489
LOAC RD vs. placebo (400 mg BID cohort, age <45 years, 95% CI (−0.266, 0.634)): 0.184
LOAC incidence, number of participants [4]: 6
LOAC incidence, percentage [4]: (30.0)
LOAC OR vs. placebo (400 mg BID cohort, age ≥45 years, 95% CI (0.069, 1.023)): 0.266
LOAC RD vs. placebo (400 mg BID cohort, age ≥45 years, 95% CI (−0.583, −0.007)): −0.295
LOAC incidence, number of participants [5]: 3
LOAC incidence, percentage [5]: (37.5)
LOAC OR vs. placebo (400 mg BID cohort, baseline BMI <25 kg/m^2, 95% CI (0.033, 2.763)): 0.300
LOAC RD vs. placebo (400 mg BID cohort, baseline BMI <25 kg/m^2, 95% CI (−0.796, 0.213)): −0.292
LOAC incidence, number of participants [6]: 6
LOAC incidence, percentage [6]: (37.5)
LOAC OR vs. placebo (400 mg BID cohort, baseline BMI ≥25-<30 kg/m^2, 95% CI (0.168, 2.709)): 0.675
LOAC RD vs. placebo (400 mg BID cohort, baseline BMI ≥25-<30 kg/m^2, 95% CI (−0.431, 0.240)): −0.096
LOAC incidence, number of participants [7]: 3
LOAC incidence, percentage [7]: (37.5)
LOAC OR vs. placebo (400 mg BID cohort, baseline BMI ≥30 kg/m^2, 95% CI (0.107, 5.238)): 0.750
LOAC RD vs. placebo (400 mg BID cohort, baseline BMI ≥30 kg/m^2, 95% CI (−0.536, 0.397)): −0.069
LOAC incidence, number of participants (400 mg BID cohort, baseline weight <60 kg, n = 3): 0
LOAC incidence, number of participants [8]: 10
LOAC incidence, percentage [8]: (43.5)
LOAC OR vs. placebo (400 mg BID cohort, baseline weight ≥60-<90 kg, 95% CI (0.366, 3.640)): 1.154
LOAC RD vs. placebo (400 mg BID cohort, baseline weight ≥60-<90 kg, 95% CI (−0.244, 0.314)): 0.035
LOAC incidence, number of participants (400 mg BID cohort, baseline weight ≥90 kg, n = 6): 2
LOAC OR vs. placebo (400 mg BID cohort, baseline weight ≥90 kg, 95% CI (0.013, 4.729)): 0.250
LOAC RD vs. placebo (400 mg BID cohort, baseline weight ≥90 kg, 95% CI (−0.987, 0.320)): −0.333
LOAC incidence, number of participants [9]: 7
LOAC incidence, percentage [9]: (38.9)
LOAC OR vs. placebo (400 mg BID cohort, female, 95% CI (0.076, 1.263)): 0.311
LOAC RD vs. placebo (400 mg BID cohort, female, 95% CI (−0.560, 0.045)): −0.258
LOAC incidence, number of participants [10]: 5
LOAC incidence, percentage [10]: (35.7)
LOAC OR vs. placebo (400 mg BID cohort, male, 95% CI (0.173, 24.590)): 2.062
LOAC RD vs. placebo (400 mg BID cohort, male, 95% CI (−0.420, 0.931)): 0.256
participants without LOAC, number [11]: 20
participants without LOAC, percent [11]: (62.5)
participants with LOAC, number (400 mg BID, N=32, 12 weeks, mITT, placebo 16): 12
RRR vs. placebo (%), LOAC (400 mg BID, mITT): 24.4%
RR vs. placebo, LOAC (400 mg BID, mITT, 95% CI 0.433, 1.319): 0.756
RD (risk difference) vs. placebo, LOAC (400 mg BID, mITT, 95% CI −0.361, 0.115): −0.123
OR vs. placebo [12]: 1.218
RD vs. Placebo [12]: 0.059
LOAC, number [13]: 4
OR vs. placebo [13]: 0.471
RD vs. Placebo [13]: −0.199
LOAC, number [14]: 3
OR vs. placebo [14]: 0.508
OR vs. placebo [15]: 0.611
RD vs. Placebo [15]: −0.119
LOAC, number [16]: 6
OR vs. placebo [16]: 0.533
RD vs. Placebo [16]: −0.156
LOAC, number [17]: 4
OR vs. placebo [17]: 2.000
RD vs. Placebo [17]: 0.159
OR vs. placebo [18]: 1.402
RD vs. Placebo [18]: 0.126
LOAC, number [19]: 1
OR vs. placebo [19]: 0.250
RD vs. Placebo [19]: −0.300
LOAC, number [20]: 4
OR vs. placebo [20]: 0.267
